In paper PMC10579241, “Impact of trifluoromethyl and sulfonyl groups on the biological activity of novel aryl-urea derivatives: synthesis, in-vitro, in-silico and SAR studies” (Scientific Reports, 2023):
≈ marks a conversion by molar mass, not a printed value. Like-named read-outs stand apart in the source and are kept apart here. Marks after values point to notes of the source that are not given here.

Key:
[1] = tested on: Bacillus mycoides; experiment: microbe, parasite or virus in culture; type: cell-based
[2] = tested on: Escherichia coli; experiment: Agar well diffusion, E. coli; type: cell-based; settings: Escherichia coli, read-out: Inhibition zones diameter
[3] = tested on: Candida albicans; experiment: Agar well diffusion, C. albicans; type: cell-based
[4] = tested on: Bacillus mycoides; experiment: microbe, parasite or virus in culture; type: cell-based; remark: listed apart in the source
[5] = tested on: Escherichia coli; experiment: MIC by serial dilution (agar wells), E. coli; type: cell-based
[6] = tested on: Candida albicans; experiment: MIC by serial dilution (agar wells), C. albicans; type: cell-based
[7] = tested on: colon cancer (HCT116); experiment: cells; type: cell-based; settings: Homo sapiens
[8] = tested on: skin cancer (A431); experiment: cells; type: cell-based; settings: Homo sapiens, 48 h
[9] = tested on: hepatocellular carcinoma cell line (HePG2); experiment: cells; type: cell-based; settings: Homo sapiens, 48 h
[10] = tested on: osteosarcoma cell line (HOS); experiment: cells; type: cell-based; settings: Homo sapiens, 48 h
[11] = in vitro; type: cell-based; settings: human, BJ1 normal skin fibroblast cells, 100 μg/mL
[12] = tested on: normal skin fibroblast cell line (BJ1); experiment: cells; type: cell-based; settings: Homo sapiens, Skin fibroblast, MTT, 48 h
[13] = tested on: TP53; experiment: qRT-PCR, TP53 in HCT116 cells; type: cell-based, human; settings: versus negative samples
Method: RNA was extracted from pancreas, prostate, lung and liver cell lines using a total RNA purification kit (Qiagen, Hilden, Germany) according to the manufacturer's instructions. An aliquot of RNA was diluted in RNase-free water to estimate RNA quantity. Aliquots were used immediately for reverse transcription (RT). cDNA synthesis was performed on extracted RNA, which was treated with DNase (Invitrogen, Germany) to remove any possible DNA contamination. The DNase-treated RNA was reverse transcribed into first-strand cDNA using the RevertAid First Strand cDNA Synthesis kit (Fermantas) according to the manufacturer's instructions. Determination of the pancreas, prostate, lung and liver cell line cDNA copy number was carried out using StepOne™ Real-Time PCR System from Applied Biosystems (Thermo Fisher Scientific, Waltham, MA USA). Gene expressions were detected by real-time PCR, which was performed using the Rotor-Gene Q system (Qiagen Company). A 25 µL reaction mixture consisted of 12.5 µL SYBR® Premix Ex TaqTM (TaKaRa, Biotech. Co. Ltd.), 0.5 µL of each primer (10 PMole) (Table 1), 1 µL cDNA (50 ng) and 10.5 µL RNase free water. The optimum amplification conditions were chosen empirically according to each tested gene. Generally, the amplification conditions include initial incubation (95.0 °C for 3 min), then 40 cycles of amplification with denaturation (95.0 °C for 15 s), annealing (55.0 °C for 30 s) and extension (72.0 °C for 30 s) steps then 71 cycles which started at 60.0 °C and then increased about 0.5 °C every 10 s up to 95.0 °C. Mean cycle threshold (Ct) values of triplicate samples are used for analysis. The Ct value indicates the fractional cycle number at which the amount of amplified target reaches a fixed threshold. Data from real-time PCR were analyzed using 2^−∆∆Ct method[38]–[40]. Data were represented as the fold change in target gene expression normalized to a House-Keeping gene (HKG) and relative to the control. β-actin was used as a HKG to normalize input RNA amount, RNA quality and reverse transcription efficiency.

[14] = tested on: FASN; experiment: qRT-PCR, FASN in HCT116 cells; type: cell-based, human; settings: versus negative samples
[15] = tested on: HCT116; experiment: DNA damage, comet assay, HCT116; type: cell-based, human
[16] = tested on: HCT116; experiment: DNA fragmentation assay, HCT116; type: cell-based, human
[17] = read-out: Minimum inhibition concentration (MIC)
[18] = 0.00488 mg/mL, 150 µL in DMSO, 15 mm agar well
[19] = 0.00975 mg/mL, 150 µL in DMSO, 15 mm agar well
[20] = 0.0195 mg/mL, 150 µL in DMSO, 15 mm agar well
[21] = 0.0391 mg/mL, 150 µL in DMSO, 15 mm agar well
[22] = 0.0781 mg/mL, 150 µL in DMSO, 15 mm agar well
[23] = 0.1563 mg/mL, 150 µL in DMSO, 15 mm agar well
[24] = 0.3125 mg/mL, 150 µL in DMSO, 15 mm agar well
[25] = 0.625 mg/mL, 150 µL in DMSO, 15 mm agar well
[26] = 1.25 mg/mL, 150 µL in DMSO, 15 mm agar well
[27] = 2.50 mg/mL, 150 µL in DMSO, 15 mm agar well
[28] = 5.00 mg/mL, 150 µL in DMSO, 15 mm agar well
[29] = 10.0 mg/mL, 150 µL in DMSO, 15 mm agar well

**Q.** Which results are given for `Cc1ccc(S(=O)(=O)NC(=O)Nc2cc(C(F)(F)F)cc(C(F)(F)F)c2)cc1` [Compound 9, N-[(3,5-bis{Trifluoromethyl}phenyl)carbamoyl]-4-methylbenzenesulfonamide]?
**A.** Inhibition zones diameter ([1]; B. mycoides, 200 μL of 10 mg/mL in DMSO in 15 mm holes, overnight 37 °C): 41 ± 0.0 mm; zone of inhibition at 10000 µg/mL ([1]; Bacillus mycoides, read-out: Inhibition zones diameter): 41 mm; zone of inhibition at 10000 µg/mL [2]: 37 ± 0.74 mm; Inhibition zones diameter ([3]; C. albicans, 200 μL of 10 mg/mL in DMSO in 15 mm holes, overnight 37 °C): 41 ± 0.21 mm; zone of inhibition at 10000 µg/mL ([3]; Candida albicans, read-out: Inhibition zones diameter): 41 mm; zone of inhibition at 4.88 µg/mL ([4]; read-out: Inhibition zone): 0 mm; zone of inhibition at 9.75 µg/mL ([4]; read-out: Inhibition zone): 0 mm; zone of inhibition at 19.5 µg/mL ([4]; read-out: Inhibition zone): 16 mm; zone of inhibition at 39.1 µg/mL ([4]; read-out: Inhibition zone): 17 mm; zone of inhibition at 78.1 µg/mL ([4]; read-out: Inhibition zone): 21 mm; zone of inhibition at 156.3 µg/mL ([4]; read-out: Inhibition zone): 25 mm; zone of inhibition at 312.5 µg/mL ([4]; read-out: Inhibition zone): 28 mm; zone of inhibition at 625 µg/mL ([4]; read-out: Inhibition zone): 29 mm; zone of inhibition at 1250 µg/mL ([4]; read-out: Inhibition zone): 30 mm; zone of inhibition at 2500 µg/mL ([4]; read-out: Inhibition zone): 32 mm; zone of inhibition at 5000 µg/mL ([4]; read-out: Inhibition zone): 33 mm; zone of inhibition at 10000 µg/mL ([4]; read-out: Inhibition zone): 33 mm; MIC [4, 17]: 19.5 µg/mL (≈ 45.7 µM); zone of inhibition at 4.88 µg/mL [5, 18]: 0 mm; zone of inhibition at 9.75 µg/mL [5, 19]: 0 mm; zone of inhibition at 19.5 µg/mL [5, 20]: 0 mm; zone of inhibition at 39.1 µg/mL [5, 21]: 0 mm; zone of inhibition at 78.1 µg/mL [5, 22]: 16 mm; zone of inhibition at 156.3 µg/mL [5, 23]: 20 mm; zone of inhibition at 312.5 µg/mL [5, 24]: 25 mm; zone of inhibition at 625 µg/mL [5, 25]: 30 mm; zone of inhibition at 1250 µg/mL [5, 26]: 32 mm; zone of inhibition at 2500 µg/mL [5, 27]: 33 mm; zone of inhibition at 5000 µg/mL [5, 28]: 34 mm; zone of inhibition at 10000 µg/mL [5, 29]: 35 mm; MIC [5, 17]: 78.1 µg/mL (≈ 183 µM); zone of inhibition at 4.88 µg/mL [6, 18]: 0 mm; zone of inhibition at 9.75 µg/mL [6, 19]: 0 mm; zone of inhibition at 19.5 µg/mL [6, 20]: 0 mm; zone of inhibition at 39.1 µg/mL [6, 21]: 16 mm; zone of inhibition at 78.1 µg/mL [6, 22]: 20 mm; zone of inhibition at 156.3 µg/mL [6, 23]: 23 mm; zone of inhibition at 312.5 µg/mL [6, 24]: 25 mm; zone of inhibition at 625 µg/mL [6, 25]: 28 mm; zone of inhibition at 1250 µg/mL [6, 26]: 32 mm; zone of inhibition at 2500 µg/mL [6, 27]: 34 mm; zone of inhibition at 5000 µg/mL [6, 28]: 35 mm; zone of inhibition at 10000 µg/mL [6, 29]: 36 mm; MIC [6, 17]: 39.1 µg/mL (≈ 91.7 µM); mortality at 100 µg/mL ([7]; HCT-116, 48 h, 100 μg/mL): 100%; IC50 ([7]; HCT-116, MTT, 48 h): 17.8 ± 0.35 µM; mortality at 100 µg/mL ([8]; A-431, 100 μg/mL): 100%; IC50 ([8]; A-431, MTT): 113.3 ± 0.68 µM; mortality at 100 µg/mL ([9]; 100 μg/mL): 100%; IC50 ([9]; MTT): 12.4 ± 0.17 µM; mortality at 100 µg/mL ([10]; 100 μg/mL): 100%; IC50 ([10]; MTT): 17.6 ± 0.24 µM; mortality at 48 h, 100 µg/mL [11]: 28 ± 0.61%; IC50 [12]: 52.5 ± 0.74 µM; TP53 gene expression level [13]: suppression; FASN gene expression level [14]: suppression; DNA damaged cells % (mean ± SEM) [15]: 19.75 ± 1.25^b %; Class 0 (no tail), number of cells ([15]; of 400 cells analyzed): 321; Class 1 (tail length < diameter of nucleus), number of cells ([15]; of 400 cells analyzed): 37; Class 2 (tail length between 1 and 2 × the diameter of nucleus), number of cells ([15]; of 400 cells analyzed): 24; Class 3 (tail length > 2 × the diameter of nucleus), number of cells ([15]; of 400 cells analyzed): 18; No. of cells, Comets ([15]; of 400 cells analyzed): 79; Change (DNA fragmentation versus untreated cells) [16]: 18.10; DNA fragmentation % M ± SEM ([16]; IC50 concentration, 24 h): 29.0 ± 0.54^a %; Inhibition ([16]; doxorubicin = 0.00): -13.81
